We go through six compounds from patent US4578398A, “Substituted 2,3,4,9-tetrahydro-1H-carbazole-1-acetic acid, compositions and use” (American Home Products Corporation, priority 1985, dated 1986).

The subject of one assay is Adjuvant Edema. The experiment in a line: Preventative Adjuvant Edema (Freund's complete adjuvant, hind paw edema volume in rats). It counts as in vivo, Male Sprague Dawley rats. Particulars: p.o., rat, dosed day 0, 1 and 2, edema volume day 3. How it is done: This test is a primary screen for anti-inflammatory drugs.
Male Sprague Dawley rats (180-200 g) are used. The animals have free access water but food is withdrawn 18 hours before testing.
Drug Preparations and Administration:
Freund's complete adjuvant is prepared by suspending 5 mg killed and dried Mycobacterium butyricum (Difco) in 1 ml liquid paraffin. The test compounds are dissolved in distilled water or suspended in distilled water with a few drops of Tween 80 according to their solubility. […]
The method is essentially that described by Wax et al., J. Pharmacol. Exp. Ther., 192, 166-171 (1975). Groups of rats are injected intradermally in the left hind paw with 0.1 ml of Freund's complete adjuvant. The test compound or vehicle is administered immediately before the adjuvant, 24 hours and 48 hours after the adjuvant (day 0, 1 and 2). The injected hind paw volume is measured before the injection of adjuvant and 24 hrs. after the last drug administration (day 3) by means of a plethysmometer (Buxco Electronics Inc.). The difference between the hind paw volume on day 0 and day 3 represents the edema volume. Phenylbutazone (50 mg./kg, p.o.) is included as a positive control.
The mean edema volume (expressed as ml±SEM) is calculated for each group and the percentage protection conferred by the drug is calculated: [formula] where c is the mean edema volume for the untreated controls and t is the mean edema volume for the drug treated group.

The test system of another assay is Phenylquinone Writhing. The experiment in a line: Drug effects in phenylquinone-induced writhing in mice. It counts as in vivo, Male Swiss albino mice. As to conditions: p.o., mouse, 60 min before phenylquinone i.p., writhes counted 15 min. How it is done: A further test used to determine the utility of the compounds of the present invention is designated: DRUG EFFECTS IN PHENYLQUINONE-INDUCED WRITHING IN MICE.
The objective of this test is to determine the ability of test drugs to inhibit the nociceptive (pain) response of mice injected with a chemical irritant. This test is a primary screen for both peripheral and centrally acting analgesic drugs.
Male Swiss albino mice (15-25 g). The animals are fasted for 18 hours prior to use but have free access to water.
Drug Preparation and Administration:
Drugs are dissolved or suspended according to their solubility in 0.5% methyl cellulose or 0.5% Tween 80. They are administered by gastric lavage in a volume of 5 ml/kg. For primary screening all drugs are administered at the arbitrary dosage of 200 mg/kg, p.o. to a group of 10 mice.
A modification of the method of Siegmund et al., Proc. Soc. Exp. Biol. Med., 95, 729-731 (1957) is used. Groups of 5 mice are dosed with the test compound or vehicle control. Sixty minutes later the animals are injected i.p. with 0.3 ml/20 g body weight of a 0.02% solution of phenylquinone (PBQ; 2-phenyl-1,4-benzoquinone) and placed in individual observation boxes. The number of writhing or abdominal squirming movements made by each mouse during the following 15 min. period is counted. The experiment is repeated with another group of 5 mice and the mean number of writhes per mouse for a group of 10 mice is calculated.
Drug treated and vehicle-treated control groups are compared and the percentage protection conferred by the drug is calculated: [formula] where c=mean number of writhes in the control group where t=mean number of writhes in the test drug group

As to `C=C(C)C1CCC(CC)(CC(=O)O)c2[nH]c3c(CC)cccc3c21` (single isomer, unassigned) [Example 3 d, 4-(1-Methylethenyl)-1,8-diethyl-2,3,4,9-tetrahydro-1H-carbazole-1-acetic Acid], the “% Inhibition (Preventative Adjuvant Edema)” value with Adjuvant Edema (50 mg/kg) was determined as 25%. Moreover, in the assay on Phenylquinone Writhing (200 mg/kg), the “% Inhibition (Phenylquinone Writhing in Mice)” value is 50%.
Turning to `C=CC1CCC(CC)(CC(=O)O)c2[nH]c3c(CC)cccc3c21` (single isomer, unassigned) [Example 1 h, 4-Ethenyl-1,8-diethyl-2,3,4,9-tetrahydro-1H-carbazole-1-acetic Acid], in the assay with Adjuvant Edema (25 mg/kg), the “% Inhibition (Preventative Adjuvant Edema)” value came out at 62%. The “% Inhibition (Phenylquinone Writhing in Mice)” value in the assay on Phenylquinone Writhing (25 mg/kg) came out at 0%.
Consider `C=C(C)C1CCC(CC)(CC(=O)O)c2[nH]c3c(CC)cccc3c21` (single isomer, unassigned) [Example 3 e, 4-(1-Methylethenyl)-1,8-diethyl-2,3,4,9-tetrahydro-1H-carbazole-1-acetic Acid], for which the “% Inhibition (Preventative Adjuvant Edema)” value in the assay with Adjuvant Edema (25 mg/kg) turned out to be 46%. The “% Inhibition (Phenylquinone Writhing in Mice)” value in the assay on Phenylquinone Writhing (25 mg/kg) was determined as 0%.
Regarding `CCc1cccc2c3c([nH]c12)C(CC)(CC(=O)O)CCC3c1ccccc1` (single isomer, unassigned) [Example 2 d, 1,8-Diethyl-2,3,4,9-tetrahydro-4-phenyl-1H-carbazole-1-acetic Acid], in the assay with Adjuvant Edema (25 mg/kg), the “% Inhibition (Preventative Adjuvant Edema)” value is 12%. In addition, the “% Inhibition (Phenylquinone Writhing in Mice)” value in the assay on Phenylquinone Writhing (25 mg/kg) came to 17%.
For `CCc1cccc2c3c([nH]c12)C(CC)(CC(=O)O)CCC3c1ccccc1` (single isomer, unassigned) [Example 2 e, 1,8-Diethyl-2,3,4,9-tetrahydro-4-phenyl-1H-carbazole-1-acetic acid] the same measures were 37% and 28%.
On the same counts, the results for `C=CC1CCC(CC)(CC(=O)O)c2[nH]c3c(CC)cccc3c21` (single isomer, unassigned) [Example 1 g, 4-Ethenyl-1,8-diethyl-2,3,4,9-tetrahydro-1H-carbazole-1-acetic Acid] are 30% and 21%.
